This data set deals with Lupinus albus. In words: Greenhouse root penetration test in bitumen membranes (DIN CEN/TS 14416). To be noted: for No. of emerged plants average: 35 seeds planted; for No. of roots grew into bitumen average / No. of roots stopped at bitumen average / Plant height average: six weeks; for No. of roots grew thoughout bitumen average: average of 3 replicates. How it is done:
A greenhouse study was carried out to compare the effectiveness of different herbicides to prevent root penetration in bitumen roof sealing membranes without killing the plant or adversely affecting it.
The herbicides were incorporated into bitumen 160/220 (thickness 4.5-6 mm) during a standard bitumen manufacturing process. The manufacturing process comprised a step of heating the bitumen mixture before a fibreglass grid was incorporated as a reinforcement of the bitumen membrane.
The herbicides Napropamide (N,N-Diethyl-2-(1-naphthyloxy)propanamide, CAS No. (S)-(+) isomer: 41643-36-1) and Prodiamine (2,4-dinitro-N3,N3-dipropyl-6-(trifluoromethyl)-1,3-benzenediamine, CAS No. 29091-21-2) were formulated as oil dispersion with 25% active ingredient. The (R)-2-(4-chlorine-o-tolyloxy)propionic acid ethyl-hexylester (trader name: ‘HERBITECT™’, 2 ethylhexyl-2-(R)-2-(4-chloro-o-tolylory)propionate) may be obtained from Büsscher & Hoffman, Fabrikstrasse 2, A-4470 Enns, Austria and was formulated as oil dispersion with approx. 95% active ingredient.
Resistance of the bitumen against root penetration was evaluated according to the standard test method known in the art as: DIN CEN/TS 14416 ‘Geosynthetische Dichtungsbahnen—Prüfverfahren zur Bestimmung des Widerstandes gegen Wurzeln, Deutsche Fassung CEN/TS14416:2005’. Bitumen membranes containing Napropamide and Prodiamine, respectively were evaluated at active ingredient concentrations of 0.5%, 0.25%, 0.125% and 0.0625% based on raw bitumen. […] Bitumen membranes without incorporated herbicide were used as a control. Three discs with a diameter of 25 cm were punched out of each bitumen membrane and used for the study.
Unglazed, earthenware flowerpots approx. 22 cm high were filled with a soil-mixture [soil low in calcium/TKS1 (3:1)] to 10 cm from the bottom of the pot. Bitumen discs were put on top of the soil layer and the gap between the disc and the pot was sealed with aquarium silicone sealant. The diameter of the discs was approximately that of the internal diameter halfway up the pots. The bitumen discs were covered with approximately 9 cm soil and a plastic watering pipe was insert into the soil of each pot. Thirty five lupine seeds (Lupinus albus) were planted in the soil and covered with about 1 cm of soil. Two pots filled only with soil were used as a control for seed germination and plant growth.
The seeds were growing in a greenhouse under artificial light (14 h photoperiod, 20-22° C., relative humidity 60%). The soil above the bitumen disc was watered with rain water led through the plastic pipe into the pots so that the surface of the bitumen was kept damp. The soil beneath the bitumen discs was kept moist by standing from time to time the pots in water-filled trays. After six weeks the soil of the pots was removed from the roots by gentle running water. The bottom side of bitumen membranes was inspected to see whether any roots have grown through the bitumen, and the upper side was examined to assess the number of roots penetrating the bitumen and the depth of penetration. During the assessments, bitumen discs, roots, and above ground parts of the plants were recorded.

The mark [1] stands for this setting: 0.38% active ingredient based on raw bitumen.
Where [2] appears, read: 0.0625% active ingredient based on raw bitumen.
[3] abbreviates: 0.0625% active ingredient, replicate 1.
Setting [4] is: 0.0625% active ingredient, replicate 2.
The mark [5] stands for this setting: 0.0625% active ingredient, replicate 3.
The mark [6] stands for this setting: 0.125% active ingredient based on raw bitumen.
Setting [7] is: 0.125% active ingredient, replicate 1.
[8] abbreviates: 0.125% active ingredient, replicate 2.
The mark [9] stands for this setting: 0.125% active ingredient, replicate 3.
Where [10] appears, read: 0.25% active ingredient based on raw bitumen.
Where [11] appears, read: 0.25% active ingredient, replicate 1.
Where [12] appears, read: 0.25% active ingredient, replicate 2.
Where [13] appears, read: 0.25% active ingredient, replicate 3.
Setting [14] is: 0.5% active ingredient based on raw bitumen.
[15] abbreviates: 0.5% active ingredient, replicate 1.
[16] abbreviates: 0.5% active ingredient, replicate 2.
Setting [17] is: 0.5% active ingredient, replicate 3.

In the case of `CCCCC(CC)COC(=O)[C@@H](C)Oc1ccc(Cl)cc1C` (stereo partly drawn) [Herbitect, (R)-2-(4-chlorine-o-tolyloxy)propionic acid ethyl-hexylester], under setting [1], the “No. of emerged plants average” value was 33.0, the “No. of roots grew into bitumen average” value is given as 46.7, the “No. of roots stopped at bitumen average” value is given as “approx. >50” and the Plant height average was determined as 34.0 cm. For the same compound, under “0.38% active ingredient”, the “No. of roots grew thoughout bitumen average” value came out at 0. Also, the “No. of roots grew thoughout bitumen (3 replicates shown)” value (0.38% active ingredient, replicate 1) is on record as 0. Under “0.38% active ingredient, replicate 2”, the “No. of roots grew thoughout bitumen (3 replicates shown)” value came out at 0. Besides, the “No. of roots grew thoughout bitumen (3 replicates shown)” value (0.38% active ingredient, replicate 3) was found to be 0. Also, the “Penetration of upper side of bitumen compared to the untreated bitumen” value (at 0.38%) was “penetrated to less extent”. The “Root penetration throughout bitumen” value (standard product, 0.38%) was “without any root penetration”.

`CCN(CC)C(=O)C(C)Oc1cccc2ccccc12` (centres unmarked) [Napropamide, N,N-Diethyl-2-(1-naphthyloxy)propanamide]: the “No. of roots grew into bitumen average” value by setting is: under setting [2], “approx. >50”; under setting [6], “approx. >50”; under setting [10], 40.0; under setting [14], 30.3. Further, the “No. of roots stopped at bitumen average” value runs as follows: under setting [2], “approx. >50”; under setting [6], “approx. >50”; under setting [10], “approx. >50”; under setting [14], “approx. >50”. The “No. of roots grew thoughout bitumen average” value by setting is: (0.0625% active ingredient) 1.3; (0.125% active ingredient) 0.7; (0.25% active ingredient) 0.3; (0.5% active ingredient) 0.3. The “No. of roots grew thoughout bitumen (3 replicates shown)” value by setting is: under setting [3], 1; under setting [4], 1; under setting [5], 2; under setting [7], 0; under setting [8], 2; under setting [9], 0. The “No. of roots grew thoughout bitumen (3 replicates shown)” value by setting is: under setting [11], 0; under setting [12], 0; under setting [13], 1; under setting [15], 1; under setting [16], 0; under setting [17], 0. For the same compound, the “Penetration of upper side of bitumen compared to the untreated bitumen” value (at 0.5% and 0.25%, respectively) is on record as “penetrated to less extent”. The “Root elongation through bitumen” value (at 0.5% and 0.25%, exception in a replicate showing one root penetration) is “stopped completely”. For the same compound, where the note is “in vivo”, the “Harm to the remaining plant parts” value is “not harmful”. The “Effectiveness to prevent root penetration of bitumen membranes” value (overall conclusion of the study) was “highly effective”.

For `CCCN(CCC)c1c([N+](=O)[O-])cc(C(F)(F)F)c(N)c1[N+](=O)[O-]` [Prodiamine, 2,4-dinitro-N3,N3-dipropyl-6-(trifluoromethyl)-1,3-benzenediamine], the “No. of emerged plants average” value was determined as 33.7 under setting [2], 34.7 under setting [6], 34.3 under setting [10] and 34.3 under setting [14]. Besides, the “No. of roots grew into bitumen average” value is, setting by setting: under setting [2], “approx. >50”; under setting [6], “approx. >50”; under setting [10], “approx. >50”; under setting [14], “approx. >50”. The “No. of roots stopped at bitumen average” value is recorded as “approx. >50” under setting [2], “approx. >50” under setting [6], “approx. >50” under setting [10] and “approx. >50” under setting [14]. For the same compound, the Plant height average reads like this: under setting [2], 33.7 cm; under setting [6], 32.3 cm; under setting [10], 31.0 cm; under setting [14], 34.0 cm. The “No. of roots grew thoughout bitumen average” value (0.0625% active ingredient) was determined as 20.3, the “No. of roots grew thoughout bitumen average” value (0.125% active ingredient) worked out at 12.0, the “No. of roots grew thoughout bitumen average” value (0.25% active ingredient) is on record as 6.7 and the “No. of roots grew thoughout bitumen average” value (0.5% active ingredient) stood at 2.7. Also, the “No. of roots grew thoughout bitumen (3 replicates shown)” value is, setting by setting: under setting [3], 27; under setting [4], 16; under setting [5], 18; under setting [7], 12; under setting [8], 18; under setting [9], 6. Further, the “No. of roots grew thoughout bitumen (3 replicates shown)” value by setting is: under setting [11], 9; under setting [12], 6; under setting [13], 5; under setting [15], 1; under setting [16], 3; under setting [17], 4. The “Effectiveness to restrict root growth throughout bitumen” value (compared to Napropamide and the standard product HERBITECT) was “slightly less effective”.

For the origin of these results see patent US20120118197A1, “BUILDING MATERIALS RESISTANT TO ROOT PENETRATION AND METHODS FOR MAKING THE SAME” (LANXESS DEUTSCHLAND GMBH, priority 2008, published 2012).
